Reference: ChEMBL document CHEMBL4673265, “The food-grade antimicrobial xanthorrhizol targets the enoyl-ACP reductase (FabI) in Escherichia coli” (Bioorg Med Chem Lett, 2020)
Numbering of substitutions follows the chain as printed. pIC50: −log10 of the molar value. Converted amounts (≈) assume the structure as drawn. The source made the active and inactive calls. The calls are words filed in the database; no cut-off is given here.

Columns and labels:
[1] = test system: T1, Enoyl-[acyl-carrier-protein] reductase [NADH] FabI (Escherichia coli K-12), P0AEK4 [Y156V]; assay: Binding affinity to Escherichia coli FabI Y156V mutant assessed as binding free energy
T1 sequence (whole entry): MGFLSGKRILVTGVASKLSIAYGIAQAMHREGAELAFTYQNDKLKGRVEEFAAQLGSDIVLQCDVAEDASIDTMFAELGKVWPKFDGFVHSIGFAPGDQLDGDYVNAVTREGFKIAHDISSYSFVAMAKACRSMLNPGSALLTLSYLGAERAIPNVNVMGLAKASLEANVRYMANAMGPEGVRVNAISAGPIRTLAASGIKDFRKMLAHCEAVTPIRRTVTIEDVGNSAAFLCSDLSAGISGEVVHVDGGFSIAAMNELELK

Escherichia coli [2] = assay: Antimicrobial activity against Escherichia coli W3110 imp4213 expressing pCA24N mutant assessed as absence of growth; format: functional
[3] = test system: T1, Enoyl-[acyl-carrier-protein] reductase [NADH] FabI (Escherichia coli K-12), P0AEK4 [Y156V]; assay: Binding affinity to Escherichia coli FabI Y156V mutant assessed as change in entropy
[4] = target: Enoyl-[acyl-carrier-protein] reductase [NADH] FabI (Escherichia coli K-12, UniProt P0AEK4, F203V); assay: Inhibition of Escherichia coli FabI F203V mutant
Plasmodium falciparum = assay: Binding affinity to Plasmodium falciparum FabI Y156V mutant assessed as fluorescence quenching by fluorescence spectral analysis
Escherichia coli [5] = assay: Antimicrobial activity against Escherichia coli W3110 imp4213 expressing fabI392 mutant assessed as absence of growth; format: functional
[6] = Drug uptake in Escherichia coli W3110 imp4213 mutant at 8 ug/ml incubated for 2 hrs (Rvb (wash control) = 1.48 +/- 1.31 pM); format: ADME; settings: dose 8 µg/ml
Escherichia coli [7] = assay: Antimicrobial activity against triclosan resistance-induced Escherichia coli W3110 assessed as absence of growth; format: functional
Escherichia coli [8] = assay: Antimicrobial activity against Escherichia coli W3110 imp4213 expressing fabI392 pCA24N fabI F204V mutant assessed as absence of growth; format: functional
[9] = target: Enoyl-[acyl-carrier-protein] reductase [NADH] FabI (Escherichia coli K-12, UniProt P0AEK4, F203L); assay: Inhibition of Escherichia coli FabI F203L mutant
[10] = target: T2, Enoyl-[acyl-carrier-protein] reductase [NADH] FabI (Escherichia coli K-12) (UniProt P0AEK4); assay: Binding affinity to wild type Escherichia coli FabI assessed as change in entropy
T2 sequence (whole entry): T1 sequence (whole entry) with V156Y

Escherichia coli [11] = assay: Antimicrobial activity against Escherichia coli W3110 imp4213 expressing fabI392 pCA24N fabI mutant assessed as absence of growth; format: functional
Escherichia coli [12] = assay: Antimicrobial activity against Escherichia coli W3110 imp4213 expressing pCA24N-fab/ Y156V mutant assessed as absence of growth; format: functional
Escherichia coli [13] = assay: Antimicrobial activity against Escherichia coli W3110 imp4213 assessed as absence of growth; format: functional
[14] = target: T2, Enoyl-[acyl-carrier-protein] reductase [NADH] FabI (Escherichia coli K-12); assay: Binding affinity to wild type Escherichia coli FabI assessed as binding free energy
Escherichia coli [15] = assay: Antimicrobial activity against Escherichia coli W3110 imp4213 expressing fabI G93V mutant assessed as absence of growth; format: functional
[16] = target: Enoyl-[acyl-carrier-protein] reductase [NADH] FabI (Escherichia coli K-12, UniProt P0AEK4, Y156V); assay: Inhibition of Escherichia coli FabI Y156V mutant
Escherichia coli [17] = assay: Antimicrobial activity against Escherichia coli W3110 imp4213 expressing pCA24N-fabI mutant assessed as absence of growth; format: functional
Escherichia coli [18] = assay: Antimicrobial activity against Escherichia coli W3110 imp4213 expressing pCA24N-fab F203L mutant assessed as absence of growth; format: functional
Escherichia coli [19] = assay: Antibacterial activity against Escherichia coli BW25113 assessed as effect on growth rate per hour at 8 uM incubated for 24 hrs by microplate reader; format: functional
Escherichia coli [20] = assay: Antimicrobial activity against Escherichia coli W3110 imp4213 expressing fabI392 pCA24N mutant assessed as absence of growth; format: functional
Escherichia coli [21] = assay: Ratio of MIC for antimicrobial activity against Escherichia coli W3110 imp4213 expressing fabI392 pCA24N fabI F203L mutant assessed as absence of growth to MIC for antimicrobial activity against Escherichia coli W3110 imp4213 expressing fabI392 mutant assessed as absence of growth; format: functional
Escherichia coli [22] = assay: Ratio of MIC for antimicrobial activity against Escherichia coli W3110 imp4213 expressing fabI392 pCA24N fabI F204V mutant assessed as absence of growth to MIC for antimicrobial activity against Escherichia coli W3110 imp4213 expressing fabI392 mutant assessed as absence of growth; format: functional
[23] = target: T3, Enoyl-[acyl-carrier-protein] reductase [NADH] FabI (Escherichia coli K-12, UniProt P0AEK4); assay: Inhibition of Wild type Escherichia coli FabI
T3 sequence (P0AEK4 whole entry): T1 sequence (whole entry) with V156Y

[24] = target: T4, Enoyl-acyl-carrier protein reductase (Plasmodium falciparum) (UniProt Q965D5); assay: Binding affinity to Plasmodium falciparum FabI assessed as fluorescence quenching by fluorescence spectral analysis
T4 sequence (whole entry): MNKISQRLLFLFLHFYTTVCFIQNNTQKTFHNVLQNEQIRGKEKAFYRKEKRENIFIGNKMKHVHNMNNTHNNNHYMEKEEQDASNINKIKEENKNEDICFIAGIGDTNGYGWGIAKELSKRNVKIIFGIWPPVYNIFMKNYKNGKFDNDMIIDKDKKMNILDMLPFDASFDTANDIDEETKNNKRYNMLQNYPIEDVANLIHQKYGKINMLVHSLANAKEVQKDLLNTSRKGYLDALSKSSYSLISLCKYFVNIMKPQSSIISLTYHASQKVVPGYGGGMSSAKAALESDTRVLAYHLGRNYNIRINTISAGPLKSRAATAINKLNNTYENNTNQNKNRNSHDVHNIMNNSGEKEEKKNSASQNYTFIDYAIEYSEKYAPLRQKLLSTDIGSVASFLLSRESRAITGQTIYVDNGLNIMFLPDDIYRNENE

Escherichia coli [25] = assay: Antimicrobial activity against Escherichia coli W3110 imp4213 expressing pCA24N-fab F204V mutant assessed as absence of growth; format: functional
Escherichia coli [26] = assay: Antimicrobial activity against Escherichia coli W3110 imp4213 expressing fabI392 pCA24N fabI F203L mutant assessed as absence of growth; format: functional
Escherichia coli [27] = assay: Antimicrobial activity against wild type Escherichia coli W3110 assessed as absence of growth; format: functional
[28] = target: Enoyl-[acyl-carrier-protein] reductase [NADH] FabI (Escherichia coli K-12, UniProt P0AEK4, G93V); assay: Inhibition of Escherichia coli FabI G93V mutant
[29] = test system: T5, Enoyl-[acyl-carrier-protein] reductase [NADH] FabI (Escherichia coli K-12), P0AEK4 [G93V]; assay: Binding affinity to Escherichia coli FabI G93V mutant assessed as change in entropy
T5 sequence (whole entry): T1 sequence (whole entry) with G93V, V156Y

[30] = Drug uptake in Escherichia coli W3110 at 8 ug/ml incubated for 2 hrs (Rvb (wash control) = 1.88 pM); format: ADME; settings: dose 8 µg/ml
Escherichia coli [31] = assay: Antimicrobial activity against Escherichia coli W3110 imp4213 expressing fabI392 pCA24N fabI Y156V mutant assessed as absence of growth; format: functional
[32] = test system: T5, Enoyl-[acyl-carrier-protein] reductase [NADH] FabI (Escherichia coli K-12), P0AEK4 [G93V]; assay: Binding affinity to Escherichia coli FabI G93V mutant assessed as binding free energy

Enoyl-[acyl-carrier-protein] reductase [NADH] FabI (Escherichia coli K-12, UniProt P0AEK4, F203V), sequence (P0AEK4 2-262 F203V limits assumed): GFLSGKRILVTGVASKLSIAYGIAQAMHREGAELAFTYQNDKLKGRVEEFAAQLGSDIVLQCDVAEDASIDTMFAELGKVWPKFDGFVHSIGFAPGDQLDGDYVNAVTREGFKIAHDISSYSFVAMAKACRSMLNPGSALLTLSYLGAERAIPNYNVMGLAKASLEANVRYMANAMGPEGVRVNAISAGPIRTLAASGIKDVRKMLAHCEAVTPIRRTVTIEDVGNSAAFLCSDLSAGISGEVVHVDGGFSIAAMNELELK
Enoyl-[acyl-carrier-protein] reductase [NADH] FabI (Escherichia coli K-12, UniProt P0AEK4, F203L), sequence (P0AEK4 2-262 F203L limits assumed): as the sequence (P0AEK4 2-262 F203V limits assumed) above, with V202L counted along it

Compound: CC(C)=CCC[C@@H](C)c1ccc(C)c(O)c1 [XANTHORRIZOL]
- deltaG [1]: -10.6 kcal/mol
- MIC (Escherichia coli [2]): 16 µg/mL (≈ 73.3 µM)
- -TdeltaS [3]: -33.2 kcal/mol
- pIC50 [4]: 4.24
- Activity (Plasmodium falciparum): inactive
- MIC (Escherichia coli [5]): 2 µg/mL (≈ 9.16 µM)
- Drug uptake [6]: 76.65 pM
- MIC (Escherichia coli [7]): 0.125 µg/mL (≈ 0.573 µM)
- MIC (Escherichia coli [8]): 16 µg/mL (≈ 73.3 µM)
- pIC50 [9]: 4.12
- -TdeltaS [10]: -32.2 kcal/mol
- MIC (Escherichia coli [11]): 8 µg/mL (≈ 36.6 µM)
- MIC (Escherichia coli [12]): 128 µg/mL (≈ 586 µM)
- MIC (Escherichia coli [13]): 16 µg/mL (≈ 73.3 µM)
- deltaG [14]: -15 kcal/mol
- MIC (Escherichia coli [15]): 16 µg/mL (≈ 73.3 µM)
- pIC50 [16]: 4.42
- MIC (Escherichia coli [17]): 64 µg/mL (≈ 293 µM)
- MIC (Escherichia coli [18]): 256 µg/mL (≈ 1170 µM)
- Activity (Escherichia coli [19]): 0.354
- MIC (Escherichia coli [20]): 2 µg/mL (≈ 9.16 µM)
- Ratio (Escherichia coli [21]): 2
- Ratio (Escherichia coli [22]): 2
- pIC50 [23]: 4.77
- Activity [24]: inactive
- MIC (Escherichia coli [25]): 256 µg/mL (≈ 1170 µM)
- MIC (Escherichia coli [26]): 16 µg/mL (≈ 73.3 µM)
- MIC (Escherichia coli [27]): 0.05 µg/mL (≈ 0.229 µM)
- pIC50 [28]: 4.70
- -TdeltaS [29]: -38.7 kcal/mol
- Drug uptake [30]: 0.23 pM
- MIC (Escherichia coli [31]): 16 µg/mL (≈ 73.3 µM)
- deltaG [32]: -15.1 kcal/mol
